“And” between values parts separate entries of the source, which are not always exact repeats. Identical values can stand only once.
Columns and labels:
Experiment in all cases: Growth inhibition assay (SRB)
SK-OV-3 = format: cell-based; conditions: 3 days of treatment; for inhibition at 1 µM / inhibition at 10 µM: Homo sapiens, SK-OV-3, 72 h, read-out: Percentage of growth inhibition, SKOV−3
Description: (§1) To illustrate the general and useful biological activity of the heteroarotinoids described in this invention, selected compounds were screened for ability to inhibit the growth of three ovarian cancerous cell lines, namely Caov, SKOV, and OVCAR cell lines, three cervical cell lines (Cervix HPV-Wt p53, Cervix HPV-Mut p53, and Cervix HPV-Mut p53), and one vulvar (Vulvar HPV-Mut p53) cell line as shown in Tables I-III. The cell lines and the technology have been previously described [See Journal of Medicinal Chemistry, 1999, Vol. 42, pages 3602-3614 in an article entitled “Synthesis, Structure-Activity Relationships, and RAR γ-Ligand Interactions of Nitrogen Heteroarotinoids” by A. Dhar, S. Liu, J. Klucik, K. D. Berlin, M. M. Madler, S. Lu, R. T. Ivey, D. Zacheis, C. W. Brown, E. C. Nelson, P. J. Birckbichler, and D. M. Benbrook], but the general technique was slightly modified. Cultures of the cancerous cells were plated in volumes of 150 μL in 96-well microtiter plates at concentrations of 2000-4000 cells/well, depending upon the cell line used. Retinoids were added the next day at 4× the concentrations in 50 μL of media resulting in 1, 2, 3, 4, 5, 7, and 10 μM final concentrations of each retinoid. Control cultures were treated with the same volume of DMSO. After 3 days of treatment, the cell density in each well was determined by fixing the cells in trichloroacetic acid followed by staining the cytoplasmic proteins with sulforhoamine B (SRB). After rinsing, the SRB was solubilized in Tris-HCl, and the optical density of each culture was determined with a MR600 microtiter plate reader. Each experiment was performed in triplicate, and the three values of each treatment were averaged. The average OD of the treated cultures was divided by that of the control cultures treated with solvent alone. To determine the percent growth inhibition, this ratio was subtracted from 1 and multiplied by 100. Tables I, II, and III contain representative examples of the inhibition of growth by the inventive heteroarotinoids of the cancerous cell lines investigated at two independent concentrations (1 and 10 μM). As standards for comparison purposes, trans-retinoic acid (t-RA), 9-cis-retinoic acid (9-c-RA), 13-cis-retinoic acid (13-c-RA), and […] (4-HPR) were added in parallel experiments along with the heteroarotinoids and with dimethyl sulfoxide (DMSO) as the solvent. For convenience, the data in Tables II and III are duplicated and ranked according to tumor type.

OVCAR-3 = format: cell-based, human; conditions: for Percentage of growth inhibition, OVCAR−3 / inhibition at 1 µM / inhibition at 10 µM: 3 days of treatment; for inhibition at 1 µM / inhibition at 10 µM: Homo sapiens, OVCAR-3, 72 h, read-out: Percentage of growth inhibition, OVCAR−3
Description: as §1

CAOV-3 = format: cell-based; conditions: 3 days of treatment; for inhibition at 1 µM / inhibition at 10 µM: Homo sapiens, Caov-3, 72 h, read-out: Percentage of growth inhibition, CAOV−3
Description: as §1

Row | Compound | Percentage of growth inhibition, SKOV−3 (SK-OV-3; 1 μM, Table II) | Percentage of growth inhibition, OVCAR−3 (OVCAR-3; 1 μM, Table II) | Percentage of growth inhibition, SKOV−3 (SK-OV-3; 10 μM, Table III) | Percentage of growth inhibition, CAOV−3 (CAOV-3; 1 μM, Table II) | Percentage of growth inhibition, CAOV−3 (CAOV-3; 10 μM, Table III) | Percentage of growth inhibition, OVCAR−3 (OVCAR-3; 10 μM, Table III) | further results
1 | 13-cis-retinoic acid [13-c-RA, reference compound] | 28.5% | 9.8% | – | – | – | – | –
2 | CC1(C)CC(C)(C)c2cc(NC(=O)Nc3ccc(C(=O)O)cc3)ccc2S1 [heteroarotinoid 14] | 3.58% | −6.70% | 0.43% | −4.00% | 6.12% | 5.45% | –
3 | CC1(C)CC(C)(C)c2cc(NC(=S)Nc3ccc(S(N)(=O)=O)cc3)ccc2S1 [heteroarotinoid 15] | −1.86% | 8.91% | 9.83% | 19.85% | −9.56% | 40.90% | –
4 | Cc1cc2c(cc1NC(=S)Nc1ccc([N+](=O)[O-])cc1)C(C)(C)CC(C)(C)S2 [heteroarotinoid 17] | 3.0% | 6.6% | 65.3% | – | – | 64.9% | –
5 | Cc1cc2c(cc1NC(=S)Nc1ccc(C(=O)O)cc1)C(C)(C)CC(C)(C)S2 [heteroarotinoid 18] | 10.5% | 10.1% | 8.5% | – | – | 18.7% | –
6 | Cc1cc([N+](=O)[O-])ccc1NC(=S)Nc1cc2c(cc1C)SC(C)(C)CC2(C)C [heteroarotinoid 19] | 16.3% | 9.6% | 33.3% | – | – | 33.2% | –
7 | Cc1cc2c(cc1NC(=S)Nc1ccc(S(N)(=O)=O)cc1)C(C)(C)CC(C)(C)S2 [heteroarotinoid 20] | 14.7% | 10.3% | 12.1% | – | – | 47.1% | –
8 | CC1(C)CC(C)(C)c2cccc(NC(=S)Nc3ccc([N+](=O)[O-])cc3)c2S1 [heteroarotinoid 22, [(4-Nitrophenyl)amino][(2,2,4,4-tetramethyl{3H-benzo[3,4-e]thiany-8-yl})amino]methane-1-thione] | 1.09% | 4.07% | – | −9.97% | – | 40.13% and 40.14% | –
9 | CCOC(=O)c1ccc(NC(=S)Nc2cccc3c2SC(C)(C)CC3(C)C)cc1 [heteroarotinoid 23] | −0.79% | −0.19% | 7.67% | 11.36% | 17.77% | 2.75% | –
10 | CCOC(=O)c1ccc(NC(=O)Nc2cc3c(cc2OC)C(C)(C)COC3(C)C)cc1 [heteroarotinoid 33] | 1.65% | 8.81% | 15.60% | 3.79% | 40.04% | 52.61% | –
11 | CCCCOC(=O)c1ccc(NC(=O)Nc2cc3c(cc2OC)C(C)(C)COC3(C)C)cc1 [heteroarotinoid 34] | 22.2% | 2.2% | 6.0% | – | – | 30.5% | –
12 | COc1cc2c(cc1NC(=S)Nc1ccc([N+](=O)[O-])cc1C)C(C)(C)OCC2(C)C [heteroarotinoid 35] | 10.3% | 5.6% | −14.3% | – | – | 6.1% | –
13 | CCOC(=O)c1ccc(NC(=O)Nc2c(OC)ccc3c2C(C)(C)COC3(C)C)cc1 [heteroarotinoid 38, Ethyl 4-{[N-(6-Methoxy-1,1,4,4-tetramethylisochroman-5-yl)carbamoyl]amino}benzoate] | – | – | – | – | – | – | inhibition at 1 µM (SK-OV-3; 1 μM, Table II): -2.39%; inhibition at 10 µM (SK-OV-3; 10 μM, Table III): -7.7%; inhibition at 1 µM (CAOV-3; 1 μM, Table II): 8.79%; inhibition at 10 µM (CAOV-3; 10 μM, Table III): -16.1%; inhibition at 1 µM (OVCAR-3; 1 μM, Table II): 9.48%; inhibition at 10 µM (OVCAR-3; 10 μM, Table III): 8.96%
14 | CCCCOC(=O)c1ccc(NC(=O)Nc2c(OC)ccc3c2C(C)(C)COC3(C)C)cc1 [heteroarotinoid 40] | 1.82% | 15.47% | 9.27% | 15.24% | 37.84% | 33.74% | inhibition of growth of the OVCAR cell line exceeding that of 4-HPR (OVCAR-3; 1 μM, Table II): more than 1200%; inhibition of growth of the OVCAR cell line exceeding that of 9-c-RA (OVCAR-3; 1 μM, Table II): about 120%; inhibition of growth of the OVCAR cell line exceeding that of 13-c-RA (OVCAR-3; 1 μM, Table II): about 40%; inhibition of growth of the OVCAR cell line exceeding that of t-RA (OVCAR-3; 1 μM, Table II): about 120%
15 | COc1ccc2c(c1NC(=S)Nc1ccc([N+](=O)[O-])cc1)C(C)(C)COC2(C)C [heteroarotinoid 41] | −2.72% | 7.18% | 45.45% | 7.58% | 61.94% | 81.71% | –
16 | CCOC(=O)c1ccc(NC(=O)Nc2cc(C(C)=O)cc3c2OCCC3(C)C)cc1 [heteroarotinoid 45, Ethyl 4-{[N-(6-Acetyl-4,4-dimethylchroman-8-yl)carbamoyl]amino}benzoate] | – | – | – | – | – | – | inhibition at 1 µM (SK-OV-3; 1 μM, Table II): -4.18%; inhibition at 10 µM (SK-OV-3; 10 μM, Table III): 20%; inhibition at 1 µM (CAOV-3; 1 μM, Table II): 7.18%; inhibition at 10 µM (CAOV-3; 10 μM, Table III): 42.8%; inhibition at 1 µM (OVCAR-3; 1 μM, Table II): 9.2%; inhibition at 10 µM (OVCAR-3; 10 μM, Table III): 47.2%
17 | CC(=O)c1cc(NC(=S)Nc2ccc([N+](=O)[O-])cc2)c2c(c1)C(C)(C)CCO2 [heteroarotinoid 46] | −1.53% | 8.57% | 0.25% | 3.85% | −5.35% | 43.15% | –

From patent publication US6586460B1, “Heteroarotinoids containing urea or thiourea linker” (The Board of Regents for Oklahoma State University, priority 2001, dated 2003)
